Data reported in BindingDB's records for patent US10550105 (Ribon Therapeutics, 2020).

target: T1, Protein mono-ADP-ribosyltransferase TIPARP (Homo sapiens, UniProt Q7Z3E1); test: Enzymatic Assay for Inhibition of PARP7
T1 sequence (Q7Z3E1 whole entry): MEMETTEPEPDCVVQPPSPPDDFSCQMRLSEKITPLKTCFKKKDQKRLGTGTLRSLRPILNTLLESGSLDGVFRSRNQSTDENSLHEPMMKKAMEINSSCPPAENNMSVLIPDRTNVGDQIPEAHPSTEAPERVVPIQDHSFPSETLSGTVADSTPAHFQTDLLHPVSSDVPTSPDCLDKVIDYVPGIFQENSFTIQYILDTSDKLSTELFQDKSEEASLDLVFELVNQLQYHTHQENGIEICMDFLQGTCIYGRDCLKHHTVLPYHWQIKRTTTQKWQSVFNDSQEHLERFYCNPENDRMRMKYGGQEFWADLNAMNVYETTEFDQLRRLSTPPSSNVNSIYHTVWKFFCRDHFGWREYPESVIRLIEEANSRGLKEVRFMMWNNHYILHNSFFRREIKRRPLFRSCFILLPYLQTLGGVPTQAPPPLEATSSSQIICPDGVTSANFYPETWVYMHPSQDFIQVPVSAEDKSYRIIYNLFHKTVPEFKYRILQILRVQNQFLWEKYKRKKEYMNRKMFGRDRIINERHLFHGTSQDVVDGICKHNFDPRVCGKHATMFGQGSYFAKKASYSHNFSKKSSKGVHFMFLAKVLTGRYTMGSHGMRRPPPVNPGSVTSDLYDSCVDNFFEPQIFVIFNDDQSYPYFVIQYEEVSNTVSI
Protocol: Displacement of Probe A, a biotinylated probe binding to the TIPARP active site, was measured using a time-resolved fluorescence energy transfer (TR-FRET) assay. 20 nL of a dose response curve of each test compound was spotted in black 384-well polystyrene proxiplates (Perkin Elmer) using a Mosquito (TTP Labtech). Reactions were performed in a 8 μL volume by adding 6 μL of TIPARP and Probe A in assay buffer (20 mM HEPES pH=8, 100 mM NaCl, 0.1% bovine serum albumin, 2 mM DTT and 0.002% Tween20), incubating with test compound at 25° C. for 30 min, then adding 2 μL of ULight-anti 6×His and LANCE Eu-W1024 labeled streptavidin (Perkin Elmer). The final concentrations of TIPARP and Probe A were 6 nM and 2 nM, respectively. […] The Hill Coefficient is normally allowed to float but may also be fixed at 1 in a 3-parameter fit. Y is the % inhibition and x is the compound concentration.

`N#Cc1ccc(N2CCN(C(=O)/C=C\COC[C@H]3c4ccccc4CN3c3cn[nH]c(=O)c3C(F)(F)F)CC2)nc1` [US10550105, Example 79C] and `N#Cc1ccc(N2CCN(C(=O)/C=C\COC[C@@H]3c4ccccc4CN3c3cn[nH]c(=O)c3C(F)(F)F)CC2)nc1` [US10550105, Example 79D] cannot be ordered by IC50: less than 100 nM for the first, less than 100 nM for the second.

First: O=C(c1cncc(OC[C@H]2c3ccccc3CN2c2cn[nH]c(=O)c2C(F)(F)F)c1)N1CCn2c(nnc2C(F)(F)F)C1 [US10550105, Example 372]
Second: O=C(c1cncc(OCC2c3ccccc3CN2c2cn[nH]c(=O)c2C(F)(F)F)c1)N1CCn2ncnc2C1 (stereo not given) [US10550105, Example 398]
The IC50 of the first is higher: greater than 1000 nM for the first, less than 100 nM for the second.

In the case of `C[C@@H](OCCC(=O)N1CCN(c2ccc(C#N)cn2)CC1)[C@@H]1CCCN1c1cn[nH]c(=O)c1C(F)(F)F` [US10550105, Example 140B], the IC50 is reported as “in the range around 550 nM”.
